Legend:
Assay type in all cases: cell-based, human
Conditions in all cases: average of three experiments, concentration range 0.2 nM to 20 μM; for GI50 / LC50: Homo sapiens; for GI50: read-out: GI50 (concentration that inhibits 50% growth); for LC50: read-out: LC50 (concentration that kills 50% of the cells)
HeLa = assay: Cytotoxicity, CellTiter-Glo Luminescent Cell Viability Assay, HeLa
Procedure: (§1) The cytotoxicities of compounds 28-a, 28-b, and 29-a were evaluated against the human cancer cell lines HeLa, SK-MEL-5, and SK-MEL-28. The cytotoxicity evaluations were performed, over a concentration range of 0.2 nM to 20 μM, using the CellTiter-Glo™ Luminescent Cell Viability Assay, a product of Promega Corporation (Madison, Wis. USA), according to the protocol detailed in Promega's Technical Bulletin No. 288. Each value is the average value obtained from three experiments. GI50 is the concentration that inhibits 50% growth; TGI is the concentration that inhibits 100% growth; and LC50 is the concentration that kills 50% of the cells.

SK-MEL-5 = assay: Cytotoxicity, CellTiter-Glo Luminescent Cell Viability Assay, SK-MEL-5
Procedure: as §1

SK-MEL-28 = assay: Cytotoxicity, CellTiter-Glo Luminescent Cell Viability Assay, SK-MEL-28
Procedure: as §1

C=C(C)C[C@H](OC)[C@H](O)C(=O)N[C@H](OC)[C@@H]1C[C@@H](O)C(C)(C)C(CC(O)[C@@H](C)C2Cc3c(C)c(O)cc(O)c3C(=O)O2)O1 (stereo partly drawn) [Compound 28-b]
GI50 (HeLa): 80 nM | LC50 (HeLa): 900 nM | TGI (concentration that inhibits 100% growth) (HeLa): 200 nM | GI50 (SK-MEL-5): 300 nM | LC50 (SK-MEL-5): 1100 nM | TGI (concentration that inhibits 100% growth) (SK-MEL-5): 700 nM | GI50 (SK-MEL-28): 110 nM | LC50 (SK-MEL-28): 900 nM | TGI (concentration that inhibits 100% growth) (SK-MEL-28): 400 nM

C=C(C)C[C@@H](OC)[C@H](O)C(=O)N[C@@H](OC)[C@@H]1C[C@@H](O)C(C)(C)C(CC(O)[C@@H](C)C2Cc3c(C)c(O)cc(O)c3C(=O)O2)O1 (stereo partly drawn) [Compound 29-a]
GI50 (HeLa): 60 nM | LC50 (HeLa): 900 nM | TGI (concentration that inhibits 100% growth) (HeLa): 200 nM | GI50 (SK-MEL-5): 300 nM | LC50 (SK-MEL-5): 1700 nM | TGI (concentration that inhibits 100% growth) (SK-MEL-5): 800 nM | GI50 (SK-MEL-28): 200 nM | LC50 (SK-MEL-28): 1100 nM | TGI (concentration that inhibits 100% growth) (SK-MEL-28): 550 nM

C=C(C)CC(OC)[C@H](O)C(=O)N[C@@H](OC)[C@@H]1C[C@@H](O)C(C)(C)[C@@H](C[C@H](O)C(C)C2Cc3c(C)c(O)cc(O)c3C(=O)O2)O1 (stereo partly drawn) [Compound 28-a, psymberin]
GI50 (HeLa): 0.23 nM | LC50 (HeLa): 1.6 nM | TGI (concentration that inhibits 100% growth) (HeLa): 0.90 nM | GI50 (SK-MEL-5): 0.3 nM | LC50 (SK-MEL-5): 1.3 nM | TGI (concentration that inhibits 100% growth) (SK-MEL-5): 0.7 nM | GI50 (SK-MEL-28): 0.23 nM | LC50 (SK-MEL-28): 1.2 nM | TGI (concentration that inhibits 100% growth) (SK-MEL-28): 0.7 nM
